Source: ChEMBL document CHEMBL1156335, “Inhibition studies of a beta-carbonic anhydrase from Brucella suis with a series of water soluble glycosyl sulfanilamides” (Bioorg Med Chem Lett, 2010)
Active and inactive are the calls of the source. The rule behind the calls is not given here.

Biological target: T1, Histidinol dehydrogenase (Brucella suis biovar 1 (strain 1330)) (UniProt Q8G2R2)
T1 sequence (whole entry): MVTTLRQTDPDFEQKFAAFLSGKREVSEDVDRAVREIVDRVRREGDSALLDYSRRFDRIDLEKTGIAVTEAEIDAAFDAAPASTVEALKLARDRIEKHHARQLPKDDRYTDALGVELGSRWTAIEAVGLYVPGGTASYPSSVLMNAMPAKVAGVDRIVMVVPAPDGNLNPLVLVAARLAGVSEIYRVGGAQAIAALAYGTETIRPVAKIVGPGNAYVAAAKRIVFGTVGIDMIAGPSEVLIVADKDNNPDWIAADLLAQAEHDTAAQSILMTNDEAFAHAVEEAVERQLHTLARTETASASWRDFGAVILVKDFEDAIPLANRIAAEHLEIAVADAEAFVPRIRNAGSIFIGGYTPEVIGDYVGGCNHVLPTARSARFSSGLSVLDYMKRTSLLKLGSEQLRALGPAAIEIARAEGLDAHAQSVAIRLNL
Experiment: Antibacterial activity against Brucella suis at 10 uM after 8 to 11 days
Assay type: functional

C[C@H]1O[C@@H](Nc2ccc(S(N)(=O)=O)cc2)[C@@H](O)[C@@H](O)[C@@H]1O
Activity: Active
